Data taken from patent US20240016781A1, “TREATMENT OF KRAS MUTANT CANCERS” (MEI Pharma, Inc., priority 2020, published 2024).
“And” between values parts separate entries of the source, which are not always exact repeats. Identical values can stand only once. Like-named read-outs stand apart in the source and are kept apart here.

How the values were obtained:
Assay in all cases: 72-hour CellTiter-Glo 2.0 growth inhibition screen (single agent, 9x9 combination dose matrix);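 as to Best CI Level: inhibition effect level at which the best CI was calculated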
Type in all cases: cell-based
Gp2D = tested on: Gp2D;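 as to Best CI Level: inhibition effect level at which the best CI was calculated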
HPAF-II = tested on: HPAF-II;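 as to Best CI Level: inhibition effect level at which the best CI was calculated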
KYSE-410 = tested on: KYSE-410;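 as to Best CI Level: inhibition effect level at which the best CI was calculated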
SW48 KRAS (G12C/+) = tested on: SW48 KRAS (G12C/+);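 as to Best CI Level: inhibition effect level at which the best CI was calculated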
TOV-21G = tested on: TOV-21G;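 as to Best CI Level: inhibition effect level at which the best CI was calculated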
[1] = Gp2D (KRAS G12D), enhancer + MEI-522 (Voruciclib), 72 h;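 as to Best CI Level: inhibition effect level at which the best CI was calculated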
[2] = Gp2D, Colorectal, Additional Single Agent Responses (inhibition, % I), 72 h
[3] = Gp2D, Colorectal, growth inhibition (GI), AUC, single agent, 72 h
[4] = enhancer combined with MEI-522 (Voruciclib), Gp2D (Colorectal), 72 hours, inhibition data
[5] = HPAF-II (KRAS G12D), enhancer + MEI-522 (Voruciclib), 72 h;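 as to Best CI Level: inhibition effect level at which the best CI was calculated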
[6] = HPAF-II, Pancreas, Additional Single Agent Responses (inhibition, % I), 72 h
[7] = HPAF-II, Pancreas, growth inhibition (GI), AUC, single agent, 72 h
[8] = enhancer combined with MEI-522 (Voruciclib), HPAF-II (Pancreas), 72 hours, inhibition data
[9] = KYSE-410 (KRAS G12C), enhancer + MEI-522 (Voruciclib), 72 h;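 as to Best CI Level: inhibition effect level at which the best CI was calculated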
[10] = KYSE-410, Esophageal, Additional Single Agent Responses (inhibition, % I), 72 h
[11] = KYSE-410, Esophageal, growth inhibition (GI), AUC, single agent, 72 h
[12] = enhancer combined with MEI-522 (Voruciclib), KYSE-410 (Esophageal), 72 hours, inhibition data
[13] = SW48 KRAS (G12C/+), Colorectal, Additional Single Agent Responses (inhibition, % I), 72 h
[14] = SW48 KRAS (G12C/+), Colorectal, growth inhibition (GI), AUC, single agent, 72 h
[15] = SW48 KRAS (G12C/+), enhancer + MEI-522 (Voruciclib), 72 h
[16] = enhancer combined with MEI-522 (Voruciclib), SW48 KRAS (G12C/+) (Colorectal), 72 hours, inhibition data
[17] = TOV-21G (KRAS G13C), enhancer + MEI-522 (Voruciclib), 72 h;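 as to Best CI Level: inhibition effect level at which the best CI was calculated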
[18] = TOV-21G, Ovary, Additional Single Agent Responses (inhibition, % I), 72 h
[19] = TOV-21G, Ovary, growth inhibition (GI), AUC, single agent, 72 h
[20] = enhancer combined with MEI-522 (Voruciclib), TOV-21G (Ovary), 72 hours, inhibition data
[21] = Gp2D, Colorectal, growth inhibition (GI) curve, single agent, 72 h
[22] = HPAF-II, Pancreas, growth inhibition (GI) curve, single agent, 72 h
[23] = KYSE-410, Esophageal, growth inhibition (GI) curve, single agent, 72 h
[24] = TOV-21G, Ovary, growth inhibition (GI) curve, single agent, 72 h

C=CC(=O)N1CCN(c2nc(=O)n(-c3c(C)ccnc3C(C)C)c3nc(-c4c(O)cccc4F)c(F)cc23)[C@@H](C)C1 [AMG510]
EC50 (Gp2D; GP2d, 72 h, Colorectal, Additional Single Agent Responses (inhibition, % I)): 2.56 µM
EC50 (Gp2D; GP2d, 72 h, Colorectal, growth inhibition (GI) curve, single agent): 2.55 µM
Best CI (Gp2D; [1]): 0.47
Bliss Volume (Gp2D; [1]): 1.60
HSA volume (Gp2D; [1]): −1.47
Loewe Volume (Gp2D; [1]): 1.40
Synergy Score (Gp2D; [1]): 2.14
Response Area (Gp2D; [2]): 0.42
Emax (Gp2D; Gp2D, Colorectal, Additional Single Agent Responses, 72 h, read-out: Max Response (% I)): 13%
Response Area (Gp2D; [3]): 0.55
Emax (Gp2D; Gp2D, Colorectal, growth inhibition (GI), single agent, 72 h, read-out: Max Response (% GI)): 18%
Best CI (Gp2D; [4]): 0.90
Best CI Level (Gp2D; [4]): 20
Bliss Volume (Gp2D; [4]): 0.54
HSA volume (Gp2D; [4]): −1.21
Loewe Volume (Gp2D; [4]): 0.47
Synergy Score (Gp2D; [4]): 0.43
Best CI (HPAF-II; [5]): 0.06
Bliss Volume (HPAF-II; [5]): −3.31
HSA volume (HPAF-II; [5]): −4.44
Loewe Volume (HPAF-II; [5]): −3.46
Synergy Score (HPAF-II; [5]): 0.12
Response Area (HPAF-II; [6]): 0.32
Response Area (HPAF-II; [7]): 0.47
EC50 (HPAF-II; Homo sapiens, HPAF-II, 72 h, Pancreas, Additional Single Agent Responses (inhibition, % I)): 2.4 µM
EC50 (HPAF-II; Homo sapiens, HPAF-II, 72 h, Pancreas, growth inhibition (GI) curve, single agent): 2.54 µM
Emax (HPAF-II; Homo sapiens, HPAF-II, Pancreas, Additional Single Agent Responses, 72 h, read-out: Max Response (% I)): 11%
Emax (HPAF-II; Homo sapiens, HPAF-II, Pancreas, growth inhibition (GI), single agent, 72 h, read-out: Max Response (% GI)): 15%
Best CI (HPAF-II; [8]): 1.03
Bliss Volume (HPAF-II; [8]): −2.30
HSA volume (HPAF-II; [8]): −3.13
Loewe Volume (HPAF-II; [8]): −2.28
Synergy Score (HPAF-II; [8]): 0.09
Best CI Level (HPAF-II; enhancer combined with MEI-522 (Voruciclib), HPAF-II (Pancreas), 72 hours, inhibition data, unit assumed): 20%
EC50 (KYSE-410; Homo sapiens, KYSE-410, 72 h, KYSE-410, Esophageal, Additional Single Agent Responses (inhibition, % I), 72 h): 0.0058 µM
EC50 (KYSE-410; Homo sapiens, KYSE-410, 72 h, KYSE-410, Esophageal, growth inhibition (GI) curve, single agent, 72 h): 0.006 µM
Emax (KYSE-410; Homo sapiens, KYSE-410, Esophageal, Additional Single Agent Responses, 72 h, read-out: Max Response (% I)): 20%
Emax (KYSE-410; Homo sapiens, KYSE-410, Esophageal, growth inhibition (GI), single agent, 72 h, read-out: Max Response (% GI)): 24%
Best CI (KYSE-410; [9]): 1.14
Bliss Volume (KYSE-410; [9]): 1.47
HSA volume (KYSE-410; [9]): 2.26
Loewe Volume (KYSE-410; [9]): 2.48
Synergy Score (KYSE-410; [9]): 1.71
Response Area (KYSE-410; [10]): 0.88
Response Area (KYSE-410; [11]): 1.06
Best CI (KYSE-410; [12]): 1.14
Bliss Volume (KYSE-410; [12]): 1.06
HSA volume (KYSE-410; [12]): 1.87
Loewe Volume (KYSE-410; [12]): 2.13
Synergy Score (KYSE-410; [12]): 1.19
Best CI Level (KYSE-410; enhancer combined with MEI-522 (Voruciclib), KYSE-410 (Esophageal), 72 hours, inhibition data, unit assumed): 45%
HSA volume (SW48 KRAS (G12C/+)): 5.42 and 3.57
Loewe Volume (SW48 KRAS (G12C/+)): 4.73
EC50 (SW48 KRAS (G12C/+); Homo sapiens, SW48, 72 h): 0.0021 µM
Emax (SW48 KRAS (G12C/+); Homo sapiens, SW48, 72 h, read-out: Max Response (% GI)): 36%
Emax (SW48 KRAS (G12C/+); Homo sapiens, SW48, 72 h, read-out: Max Response (% I)): 29%
Response Area (SW48 KRAS (G12C/+); [13]): 1.47
Response Area (SW48 KRAS (G12C/+); [14]): 1.78
Best CI (SW48 KRAS (G12C/+); [15]): 0.36
Synergy Score (SW48 KRAS (G12C/+); [15]): 5.97
Best CI (SW48 KRAS (G12C/+); [16]): 0.62
Best CI Level (SW48 KRAS (G12C/+); [16]): 60
EC50 (TOV-21G; Homo sapiens, TOV21G, TOV-21G, Ovary, Additional Single Agent Responses (inhibition, % I), 72 h): 3 µM
Emax (TOV-21G; Homo sapiens, TOV21G, TOV-21G, Ovary, Additional Single Agent Responses, 72 h, read-out: Max Response (% I)): 7%
Emax (TOV-21G; Homo sapiens, TOV21G, TOV-21G, Ovary, growth inhibition (GI), single agent, 72 h, read-out: Max Response (% GI)): 9%
Best CI (TOV-21G; [17]): 0.37
Bliss Volume (TOV-21G; [17]): 2.49
HSA volume (TOV-21G; [17]): −6.11
Loewe Volume (TOV-21G; [17]): −3.64
Synergy Score (TOV-21G; [17]): 0.49
Response Area (TOV-21G; [18]): −0.01
Response Area (TOV-21G; [19]): −0.01
Best CI (TOV-21G; [20]): 0.45
Best CI Level (TOV-21G; [20]): 20
Bliss Volume (TOV-21G; [20]): 2.55
HSA volume (TOV-21G; [20]): −4.28
Loewe Volume (TOV-21G; [20]): −2.46
Synergy Score (TOV-21G; [20]): 0.33

CN1CC[C@@H](c2c(O)cc(O)c3c(=O)cc(-c4ccc(C(F)(F)F)cc4Cl)oc23)[C@@H]1CO [MEI-522(Voruciclib)]
EC50 (Gp2D; [2]): 0.747 µM
IC50 (Gp2D; [2]): 0.791 µM
Response Area (Gp2D; [2]): 2.94
Max Response (% I) (Gp2D; Gp2D, Colorectal, Additional Single Agent Responses, 72 h): 94 % I
EC50 (Gp2D; [21]): 1.17 µM
GI50 (Gp2D; [21]): 0.695 µM
Response Area (Gp2D; [3]): 5.14
Max Response (% GI) (Gp2D; Gp2D, Colorectal, growth inhibition (GI), single agent, 72 h): 176 % GI
EC50 (HPAF-II; [6]): 1.31 µM
IC50 (HPAF-II; [6]): 1.88 µM
Response Area (HPAF-II; [6]): 2.09
Max Response (% I) (HPAF-II; HPAF-II, Pancreas, Additional Single Agent Responses, 72 h): 72 % I
EC50 (HPAF-II; [22]): 1.33 µM
GI50 (HPAF-II; [22]): 1.34 µM
Response Area (HPAF-II; [7]): 2.84
Max Response (% GI) (HPAF-II; HPAF-II, Pancreas, growth inhibition (GI), single agent, 72 h): 97 % GI
EC50 (KYSE-410; [10]): 1.74 µM
IC50 (KYSE-410; [10]): 1.9 µM
Response Area (KYSE-410; [10]): 1.97
Max Response (% I) (KYSE-410; KYSE-410, Esophageal, Additional Single Agent Responses, 72 h): 72 % I
EC50 (KYSE-410; [23]): 1.75 µM
GI50 (KYSE-410; [23]): 1.8 µM
Response Area (KYSE-410; [11]): 2.41
Max Response (% GI) (KYSE-410; KYSE-410, Esophageal, growth inhibition (GI), single agent, 72 h): 87 % GI
IC50 (SW48 KRAS (G12C/+); [13]): 0.731 µM
Response Area (SW48 KRAS (G12C/+); [13]): 2.74
EC50 (SW48 KRAS (G12C/+); SW48 KRAS (G12C/+), Colorectal, Additional Single Agent Responses (inhibition, % I), 72 h, read-out: EC50): 0.591 µM
Max Response (% I) (SW48 KRAS (G12C/+); SW48 KRAS (G12C/+), Colorectal, Additional Single Agent Responses, 72 h): 85 % I
GI50 (SW48 KRAS (G12C/+); SW48 KRAS (G12C/+), Colorectal, growth inhibition (GI) curve, single agent, 72 h): 0.586 µM
EC50 (SW48 KRAS (G12C/+); SW48 KRAS (G12C/+), Colorectal, growth inhibition (GI) curve, single agent, 72 h, read-out: EC50): 0.719 µM
Response Area (SW48 KRAS (G12C/+); [14]): 3.67
Max Response (% GI) (SW48 KRAS (G12C/+); SW48 KRAS (G12C/+), Colorectal, growth inhibition (GI), single agent, 72 h): 115 % GI
EC50 (TOV-21G; [18]): 1.66 µM
IC50 (TOV-21G; [18]): 1.73 µM
Response Area (TOV-21G; [18]): 2.63
Max Response (% I) (TOV-21G; TOV-21G, Ovary, Additional Single Agent Responses, 72 h): 95 % I
EC50 (TOV-21G; [24]): 1.98 µM
GI50 (TOV-21G; [24]): 1.57 µM
Response Area (TOV-21G; [19]): 4.89
Max Response (% GI) (TOV-21G; TOV-21G, Ovary, growth inhibition (GI), single agent, 72 h): 181 % GI
